Assay results reported in ChEMBL document CHEMBL3885881, “DrugMatrix”.

Species on record: Rattus norvegicus
Assay: DrugMatrix - Regimen: Daily Repeat
Format: toxicity, organism-based, Sprague-Dawley
Parameters: regimen Daily Repeat, gender Male, age 6-8 weeks
Settings: in vivo, po, route oral GAVAGE, vehicle 100 % WATER; for ERYTHROCYTE COUNT / HEMATOCRIT / HEMOGLOBIN / LEUKOCYTE COUNT / MEAN CORPUSCULAR HEMOGLOBIN / MEAN CORPUSCULAR HEMOGLOBIN CONCENTRATION / MEAN CORPUSCULAR VOLUME: tissue Blood; for ALANINE AMINOTRANSFERASE / ALBUMIN / ALKALINE PHOSPHATASE / ASPARTATE AMINOTRANSFERASE / BLOOD UREA NITROGEN / CARBON DIOXIDE / CHLORIDE / CHOLESTEROL / CREATINE PHOSPHOKINASE / CREATININE / GLUCOSE / LACTATE DEHYDROGENASE / LIPASE / PHOSPHORUS / POTASSIUM / SODIUM / TOTAL BILIRUBIN / TOTAL PROTEIN / URIC ACID: tissue Plasma
[1] = 0 mg/kg, 72 h, dose level Control, time 3 day
[2] = 0 mg/kg, 120 h, dose level Control, time 5 day
[3] = 70 mg/kg, 72 h, dose level Low, time 3 day
[4] = 70 mg/kg, 120 h, dose level Low, time 5 day

## COc1cc2c(N3CCN(C(=O)Nc4ccc(OC(C)C)cc4)CC3)ncnc2cc1OCCCN1CCCCC1 [TANDUTINIB]
[1]
  ERYTHROCYTE COUNT: 6.09 x10E6/uL
  HEMATOCRIT: 42.62%
  HEMOGLOBIN: 13.07 G/DL
  LEUKOCYTE COUNT: 13.95 x10E3/uL
  MEAN CORPUSCULAR HEMOGLOBIN: 21.47 pg
  MEAN CORPUSCULAR HEMOGLOBIN CONCENTRATION: 30.62 G/DL
  MEAN CORPUSCULAR VOLUME: 70.05 fL
  ALANINE AMINOTRANSFERASE: 47.67 u/L
  ALBUMIN: 3.8 G/DL
  ALKALINE PHOSPHATASE: 369 u/L
  ASPARTATE AMINOTRANSFERASE: 86.17 u/L
  BLOOD UREA NITROGEN: 16.33 mg/dL
  CARBON DIOXIDE: 37.33 mmol/L
  CHLORIDE: 104.83 MEQ/L
  CHOLESTEROL: 79.83 mg/dL
  CREATINE PHOSPHOKINASE: 392.83 u/L
  CREATININE: 0.68 mg/dL
  GLUCOSE: 153.33 mg/dL
  LACTATE DEHYDROGENASE: 426.17 u/L
  LIPASE: 11.67 u/L
  PHOSPHORUS: 11 mg/dL
  POTASSIUM: 6.72 MEQ/L
  SODIUM: 146.67 MEQ/L
  TOTAL BILIRUBIN: 0.55 mg/dL
  TOTAL PROTEIN: 6.32 G/DL
  URIC ACID: 0.0167 mg/dL
[2]
  ERYTHROCYTE COUNT: 6.93 x10E6/uL
  HEMATOCRIT: 46.82%
  HEMOGLOBIN: 14.23 G/DL
  LEUKOCYTE COUNT: 13.43 x10E3/uL
  MEAN CORPUSCULAR HEMOGLOBIN: 20.55 pg
  MEAN CORPUSCULAR HEMOGLOBIN CONCENTRATION: 30.38 G/DL
  MEAN CORPUSCULAR VOLUME: 67.62 fL
  ALANINE AMINOTRANSFERASE: 44.67 u/L
  ALBUMIN: 3.8 G/DL
  ALKALINE PHOSPHATASE: 417.83 u/L
  ASPARTATE AMINOTRANSFERASE: 83 u/L
  BLOOD UREA NITROGEN: 15.33 mg/dL
  CARBON DIOXIDE: 38.83 mmol/L
  CHLORIDE: 98.17 MEQ/L
  CHOLESTEROL: 66.83 mg/dL
  CREATINE PHOSPHOKINASE: 383.17 u/L
  CREATININE: 0.72 mg/dL
  GLUCOSE: 156.5 mg/dL
  LACTATE DEHYDROGENASE: 519.67 u/L
  LIPASE: 4.83 u/L
  PHOSPHORUS: 11.07 mg/dL
  POTASSIUM: 6.03 MEQ/L
  SODIUM: 138 MEQ/L
  TOTAL BILIRUBIN: 0.55 mg/dL
  TOTAL PROTEIN: 6.3 G/DL
  URIC ACID: 0.0833 mg/dL
[3]
  ERYTHROCYTE COUNT: 6.43 x10E6/uL
  HEMATOCRIT: 44.4%
  HEMOGLOBIN: 13.2 G/DL
  LEUKOCYTE COUNT: 8.32 x10E3/uL
  MEAN CORPUSCULAR HEMOGLOBIN: 20.5 pg
  MEAN CORPUSCULAR HEMOGLOBIN CONCENTRATION: 29.63 G/DL
  MEAN CORPUSCULAR VOLUME: 69.13 fL
  ALANINE AMINOTRANSFERASE: 47 u/L
  ALBUMIN: 3.87 G/DL
  ALKALINE PHOSPHATASE: 436.67 u/L
  ASPARTATE AMINOTRANSFERASE: 80.67 u/L
  BLOOD UREA NITROGEN: 15.33 mg/dL
  CARBON DIOXIDE: 37.33 mmol/L
  CHLORIDE: 107.67 MEQ/L
  CHOLESTEROL: 84.67 mg/dL
  CREATINE PHOSPHOKINASE: 198 u/L
  CREATININE: 0.67 mg/dL
  GLUCOSE: 163.33 mg/dL
  LACTATE DEHYDROGENASE: 277.33 u/L
  LIPASE: 14.33 u/L
  PHOSPHORUS: 9.63 mg/dL
  POTASSIUM: 6.33 MEQ/L
  SODIUM: 149.67 MEQ/L
  TOTAL BILIRUBIN: 0.47 mg/dL
  TOTAL PROTEIN: 6.2 G/DL
  URIC ACID: 0.0333 mg/dL
[4]
  ERYTHROCYTE COUNT: 6.62 x10E6/uL
  HEMATOCRIT: 44.77%
  HEMOGLOBIN: 13.67 G/DL
  LEUKOCYTE COUNT: 11.49 x10E3/uL
  MEAN CORPUSCULAR HEMOGLOBIN: 20.67 pg
  MEAN CORPUSCULAR HEMOGLOBIN CONCENTRATION: 30.6 G/DL
  MEAN CORPUSCULAR VOLUME: 67.7 fL
  ALANINE AMINOTRANSFERASE: 36.33 u/L
  ALBUMIN: 3.8 G/DL
  ALKALINE PHOSPHATASE: 323.33 u/L
  ASPARTATE AMINOTRANSFERASE: 69 u/L
  BLOOD UREA NITROGEN: 14.67 mg/dL
  CARBON DIOXIDE: 34.67 mmol/L
  CHLORIDE: 100.67 MEQ/L
  CHOLESTEROL: 73 mg/dL
  CREATINE PHOSPHOKINASE: 199 u/L
  CREATININE: 0.67 mg/dL
  GLUCOSE: 164.33 mg/dL
  LACTATE DEHYDROGENASE: 327 u/L
  LIPASE: 5.67 u/L
  PHOSPHORUS: 11.33 mg/dL
  POTASSIUM: 5.83 MEQ/L
  SODIUM: 139.67 MEQ/L
  TOTAL BILIRUBIN: 0.43 mg/dL
  TOTAL PROTEIN: 6.17 G/DL
  URIC ACID: 0.27 mg/dL
